Compound | melting point
CS(=O)(=O)CCC(NC(=O)c1ccccc1Cl)C(=O)O (centres undefined) | 159 to 161 °C
COC(=O)C1=C(C)NC(C)=C(C(=O)OC)C1C(=O)O | 128 to 130 °C
O=C(O)C1CCN(C(=O)c2ccccn2)CC1 | 146 to 148 °C
NNC(=O)Nc1ccc2c(c1)OCO2 | 164 to 166 °C
OC1C2CCCC1CN(Cc1ccccc1)C2 (centres undefined) | 88 to 90 °C
Nc1ccc(N2CCCC2)cc1C(=O)O | 148 to 150 °C
NS(=O)(=O)c1ccc(-n2cccn2)c(F)c1 | 190 to 192 °C
CCn1nc(N)cc1C(F)(F)F | 54 to 56 °C
N#CCc1ccc(OCCBr)cc1 | 52 to 54 °C
N#CCc1cc(Br)cnc1O | 209 to 211 °C
O=C(O)c1nnn(-c2ccc(Br)cc2)c1C(F)(F)F | 169 to 171 °C
O=C(O)c1csc(C2CC2)n1 | 123 to 125 °C
COC(=O)C1CN(CC#N)CCO1 (centres undefined) | 79 to 81 °C
COc1ccc(NS(=O)(=O)c2cc(C(=O)O)ccc2F)cc1 | 209 to 211 °C
N#Cc1ccc2[nH]cc(C=O)c2c1 | 239 to 241 °C
CS(=O)(=O)N1CCCC(C(=O)O)C1 (centres undefined) | 107 to 109 °C
O=S(=O)(c1ccc(O)cc1)N1CCCCC1 | 130 to 132 °C
Cc1cc(C)n(CC(=O)NN)n1 | 102 to 104 °C
O=S(=O)(Cl)C1=Cc2ccc(OC(F)F)cc2CC1 | 72 to 74 °C
Cc1nc(C2(NC(=O)CCl)CCCCC2)no1 | 93 to 95 °C
CCn1cnnc1CNC(=O)OCC(F)(F)F | 102 to 104 °C
[N-]=[N+]=Nc1cccc2ncccc12 | 61 to 63 °C
CNC(=O)NCCC(=O)O | 129 to 131 °C
Cc1ccc(-c2nn(Cc3ccccc3)cc2C(=O)O)cc1 | 157 to 159 °C
N#Cc1ccc(CS(=O)(=O)NN)cc1 | 142 to 144 °C
NS(=O)(=O)c1ccc(N2CCNCC2)cc1 | 219 to 221 °C

Compound | melting point
O=C(O)c1nccnc1C(=O)N1CCOCC1 | 185 to 187 °C
O=C(O)C1CCN(C(=O)NCc2ccco2)CC1 | 138 to 140 °C
CCCc1c(C(=O)O)[nH]c(C)c1C(=O)OC | 215 to 217 °C
CC1CCN(S(=O)(=O)N2CCNCC2)CC1 | 61 to 63 °C
Cc1cc(C(=O)O)nn1C1CCCCC1 | 145 to 147 °C
CC(C)NC(=O)C(C#N)=CN(C)C | 113 to 115 °C
N#Cc1cccc(N2CCCC2=O)c1 | 81 to 83 °C
CC(C)(C)C(=O)N1CCOC(C(=O)O)C1 (centres undefined) | 148 to 150 °C
O=C(Nc1nnc(C2CC2)s1)OCC(F)(F)F | 197 to 199 °C
O=C(O)c1ccc(Br)cc1OC(F)F | 133 to 135 °C
CCOC(=O)c1c(N)sc2c1CCN(C(C)C)C2 | 81 to 83 °C
COc1ccc(CCCCC(=O)O)cc1 | 112 to 114 °C
NC(=O)CCOc1ccccc1N | 98 to 100 °C
O=C1Nc2cc(F)c([N+](=O)[O-])cc2C1=O | 236 to 238 °C
O=C(O)c1oc2ccccc2c1CSC1CCCCC1 | 158 to 160 °C
COc1ccc(S(N)(=O)=O)c([N+](=O)[O-])c1 | 143 to 145 °C
CN1CCN(c2ccc(F)cc2N)CC1 | 126 to 128 °C
O=[N+]([O-])c1ccc(OCC(F)(F)F)nc1 | 41 to 43 °C
NCc1cc[nH]n1 | 58 to 60 °C
O=C(O)c1ccc(NC(=O)c2ccccc2)cc1 | 297 to 299 °C
CC(=O)Cn1c(=O)oc(=O)c2ccccc21 | 151 to 153 °C
NCC(O)C1CCCCC1 (centres undefined) | 85 to 87 °C
Nc1cc(I)ccc1O | 135 to 137 °C
CCCN1Cc2ccc(N)cc2C1 | 48 to 50 °C
Ic1cnc2ccccn12 | 166 to 168 °C
N#Cc1ccccc1N1CCOCC1 | 48 to 50 °C

Compound | melting point
O=C(O)C1=C(Nc2ccccc2)OCC1=O | 140 to 150 °C
Nc1cc2c(cc1F)CCC(=O)N2 | 174 to 176 °C
Nc1cccc(NC(=O)c2cccnc2)c1 | 155 to 157 °C
CC(C)(C)Oc1ccc(C(=O)O)cc1 | 139 to 141 °C
NC(=O)CNC(=O)c1cccc(O)c1 | 179 to 181 °C
O=C(O)c1cc(Cl)c(Cl)cc1C(=O)O | 201 to 203 °C
C1Cc2nn[nH]c2CN1 | 154 to 156 °C
CC(C)N1CCC(C(=O)O)CC1 | 168 to 170 °C
O=C(O)c1occc1CS(=O)(=O)c1ccc(Br)cc1 | 211 to 213 °C
Nc1ccc2ccoc2c1 | 51 to 53 °C
O=C(O)CCc1cc(Br)ccc1F | 84 to 86 °C
Sc1n[nH]c(C2CC2)n1 | 235 to 237 °C
Nc1ccc(Br)c2ccccc12 | 102 to 104 °C
CN1CCN(c2cccc(C#N)n2)CC1 | 59 to 61 °C
COC(=O)C=Cc1ccc(C(F)(F)F)cc1 | 74 to 76 °C
CC1(O)CCc2ccccc21 (centres undefined) | 56 to 58 °C
Nc1cc(-c2cccs2)nn1CCO | 155 to 157 °C
O=S(=O)(CCCl)c1cc(Cl)ccc1Cl | 80 to 82 °C
O=C(O)CSc1nnc(-c2cccs2)n1C1CC1 | 229 to 231 °C
O=c1[nH]nc2n1CCNC2 | 179 to 181 °C
COc1cc(OC)c(S(=O)(=O)Cl)cc1Br | 193 to 195 °C
O=C(O)C1CCn2ccnc2C1 (centres undefined) | 231 to 233 °C
CC(C)(C)OC(=O)NC1CCCCCC1=O (centres undefined) | 67 to 69 °C
NCC1(O)CCS(=O)(=O)CC1 | 175 to 177 °C
CC1C(=O)NC(=O)C1C (centres undefined) | 56 to 58 °C
NNc1cccc(C(F)(F)F)n1 | 62 to 64 °C

Other lines, results leading:

melting point | Compound
216 to 220 °C | COc1ccc(C(=O)Nc2sc3c(c2C(=O)O)CCCC3)cc1
117 to 119 °C | Nc1cc(-c2cccc(F)c2F)n[nH]1
133 to 135 °C | Cc1sc2[nH]c(-c3ccc(Cl)nc3)nc(=N)c2c1C
120 to 122 °C | CC(=O)c1ccc(-c2ccc(Cl)cc2)s1
166 to 168 °C | Cc1nc2c(cnn2C(C)C)cc1C(=O)O
99 to 101 °C | CC(=O)c1nnn(-c2ccccc2)c1C
247 to 249 °C | O=c1[nH][nH]c2cccc(Cl)c12
119 to 121 °C | Cc1cc([N+](=O)[O-])c(C)cc1C#N
162 to 164 °C | Sc1nnnn1-c1ccc(Cl)cc1
113 to 115 °C | O=C(O)c1noc(-c2cc(Cl)ccc2F)n1
164 to 166 °C | Cn1c(=O)c2ccccc2n2cc3ccccc3c12
241 to 243 °C | CC(Cl)c1nc2scc(-c3cccs3)c2c(=O)[nH]1 (centres undefined)
132 to 134 °C | O=C(Nc1ccc([N+](=O)[O-])cc1Cl)OCC(F)(F)F
99 to 103 °C | Cc1cc(C(=O)CCl)c(C)n1-c1ccc2c(c1)OCCO2
172 to 174 °C | N#Cc1cnc2c(F)ccc(F)c2c1Cl
182 to 184 °C | Oc1ccc(-c2nc3cc(C(F)(F)F)ccc3s2)cc1
77 to 79 °C | CC(C(=O)O)c1ccc2c(c1)OCCO2 (centres undefined)
94 to 98 °C | O=Cc1ccc(-c2cccc(Cl)c2Cl)o1
339 to 341 °C | O=C(O)c1cc(F)cc2[nH]cnc12
214 to 216 °C | O=c1oc2cc(O)ccc2c2c1CCC2
166 to 168 °C | c1ccc(COc2ccc3cn[nH]c3c2)cc1
212 to 214 °C | CC(C)(C)c1nn(-c2ccccc2)cc1C(=O)O

melting point | Compound
149 to 151 °C | O=C(O)c1cnn(-c2ncccc2Cl)c1C(F)(F)F
134 to 136 °C | COC(=O)c1cc2nc(Cl)ccc2n1C
113 to 115 °C | CC(=O)c1nnn(-c2ccc(Cl)cc2)c1C
59 to 61 °C | COCCOc1ccc(C(F)(F)F)cc1NC(=O)C(C)Cl (centres undefined)
135 to 137 °C | CSCc1cc(C(=O)O)sc1C
82 to 84 °C | COc1ccc2cc(C(C)Cl)ccc2c1 (centres undefined)
179 to 181 °C | O/N=C/c1c(Cl)ncn1-c1ccccc1
154 to 156 °C | Nc1nc(Sc2ccccc2)ns1
49 to 51 °C | CCCOc1ccc(N)cc1Cl
199 to 201 °C | O=C(O)c1cc(-c2ccccc2)nc2onc(C3CC3)c12
49 to 51 °C | CNc1cc(Cl)cc(CO)c1
206 to 208 °C | Cn1c(S)nnc1-c1cncc(N)c1
83 to 85 °C | CC1=CC(=O)N(c2ccccc2F)C1=O
123 to 125 °C | Cc1ccccc1-c1csc(=O)[nH]1
147 to 149 °C | Cc1sc(N)nc1-c1ccc(Br)cc1
164 to 166 °C | Cn1nc(-c2ccccn2)c(-c2ccc(F)cc2)c1N
251 to 253 °C | O=C(O)c1c[nH]nc1-c1cccc(Cl)c1
124 to 126 °C | CCCCc1ccc(Nc2nnc(S)s2)cc1
86 to 88 °C | Cn1nnnc1-c1cccc(S(=O)(=O)Cl)c1
138 to 140 °C | Nc1ccc(Oc2cnccn2)cc1
133 to 135 °C | O=C(CCl)Nc1ccc(Br)cc1F
179 to 181 °C | Cc1c(C(=O)O)c(=O)oc2ccc(Br)cc12

melting point | Compound
196 to 198 °C | Nc1cc(Cl)ncn1
153 to 155 °C | COc1cccc(C=C(CC(=O)O)c2nc3ccccc3s2)c1
111 to 113 °C | O=C(O)c1ccc(C2CC2)s1
129 to 131 °C | COC(=O)c1ccc(I)cn1
170 to 179 °C | Nc1nnc(Cc2ccccc2)s1
102 to 104 °C | Cc1ccc(-n2c(C)cc(C=O)c2C)cc1
119 to 121 °C | CNC(=O)c1cc(OC)ccc1N
104 to 109 °C | O=C(O)Cc1csc(-c2cccc(Cl)c2)n1
110 to 112 °C | O=C(CCl)Nc1sc2c(c1C(=O)c1ccccc1)CCCC2
171 to 173 °C | O=C(O)Cc1ccc(O)cc1Cl
242 to 244 °C | Cc1nn(C)c2nc(C3CC3)cc(C(=O)O)c12
241 to 243 °C | COc1cc(OC)cc(C(=O)Nc2ccc(O)c(C(=O)O)c2)c1
69 to 71 °C | Brc1ccc(-c2cscn2)cc1
229 to 231 °C | Cc1nn(-c2ccc(C(=O)O)cc2)c(C)c1Br
167 to 169 °C | CN(C)c1ccc(C(=O)O)nn1
203 to 205 °C | N#Cc1ccc2[nH]cnc2c1
64 to 66 °C | O=[N+]([O-])c1ccccc1CSc1ccc(C(F)(F)F)cn1
212 to 214 °C | Fc1ccc(-c2nnc(S)n2CCN2CCOCC2)cc1
88 to 90 °C | CC(Cl)C(=O)NCc1ccccc1Cl (centres undefined)
188 to 190 °C | O=C(O)Cn1ncc2ccccc21
89 to 91 °C | Clc1nc(CN2CCCCC2)nc2scc(-c3cccs3)c12
179 to 181 °C | Nc1n[nH]c(Cc2cccc(F)c2)n1

Reference: a melting point compilation (Tetko et al.)
